Source: ChEMBL document CHEMBL1201862, “PubChem BioAssay data set” (2004)
Active and inactive are the calls of the source.

What was measured:
[1] = HEp-2 cell cytotoxicity, dose response, cytotoxicity control for RSV inhibitor project, HTS (AID 2410); type: functional; conditions: human respiratory syncytial virus
[2] = cells
[3] = biological target: DNA dC->dU-editing enzyme APOBEC-3G (Homo sapiens, UniProt Q9HC16); assay: Dose Response confirmation of small molecule APOBEC3G DNA Deaminase Inhibitors via a fluorescence-based single-stranded DNA deaminase assay. [Related pubchem assays (depositor defined):AID493012, AID493028]; type: functional
[4] = Vero E6 cell cytotoxicity, dose response, cytotoxicity control for non-replicating M. tuberculosis project, secondary assay (AID 492998); type: functional, VeroE6; conditions: Vero C1008
[5] = cells; type: functional
[6] = THP-1 cell cytotoxicity, dose response, cytotoxicity control for non-replicating M. tuberculosis project (AID 489025); type: functional
[7] = HepG2 cell cytotoxicity, dose response, cytotoxicity control for non-replicating M. tuberculosis project (AID 489018); type: functional; conditions: Mycobacterium tuberculosis
[8] = biological target: T1, Short transient receptor potential channel 4 (Mus musculus, UniProt Q9QUQ5); assay: mouse TRPC4 channel inhibitors, dose response, cell-based, HEK293 TRPC4/mu-opioid, Fluo-4 calcium (AID 434942); type: functional;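 further: potency of inhibitors blocking the TRPC4 calcium response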
T1 sequence (Q9QUQ5 whole entry): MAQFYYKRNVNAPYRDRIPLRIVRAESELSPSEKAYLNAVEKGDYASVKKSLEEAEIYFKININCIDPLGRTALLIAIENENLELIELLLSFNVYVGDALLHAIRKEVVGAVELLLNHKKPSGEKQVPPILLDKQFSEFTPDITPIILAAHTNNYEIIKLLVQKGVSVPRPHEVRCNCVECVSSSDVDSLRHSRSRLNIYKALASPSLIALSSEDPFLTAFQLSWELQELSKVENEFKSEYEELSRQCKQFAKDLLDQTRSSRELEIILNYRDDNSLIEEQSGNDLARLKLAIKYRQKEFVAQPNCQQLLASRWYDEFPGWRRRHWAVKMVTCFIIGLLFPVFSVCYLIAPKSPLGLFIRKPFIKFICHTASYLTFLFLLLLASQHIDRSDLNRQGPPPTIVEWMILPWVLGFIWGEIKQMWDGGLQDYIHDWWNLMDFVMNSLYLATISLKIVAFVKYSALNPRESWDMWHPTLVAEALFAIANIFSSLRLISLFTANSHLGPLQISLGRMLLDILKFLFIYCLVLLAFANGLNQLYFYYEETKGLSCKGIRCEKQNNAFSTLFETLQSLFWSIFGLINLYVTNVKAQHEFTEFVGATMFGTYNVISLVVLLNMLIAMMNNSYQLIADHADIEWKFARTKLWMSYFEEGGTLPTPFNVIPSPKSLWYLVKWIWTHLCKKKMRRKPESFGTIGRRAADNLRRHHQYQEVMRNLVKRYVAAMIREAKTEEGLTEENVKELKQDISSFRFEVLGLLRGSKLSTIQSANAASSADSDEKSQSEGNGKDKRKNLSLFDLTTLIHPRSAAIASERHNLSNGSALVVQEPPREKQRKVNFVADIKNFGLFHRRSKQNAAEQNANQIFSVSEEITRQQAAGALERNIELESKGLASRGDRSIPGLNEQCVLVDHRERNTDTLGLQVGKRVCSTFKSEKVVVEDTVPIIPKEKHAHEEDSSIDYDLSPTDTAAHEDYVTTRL

[9] = biological target: Beta-galactosidase (Escherichia coli, UniProt Q8VNN2); assay: beta-galactosidase enzyme inhibitors and activators, dose response, artefact control for CCR6 antagonist project, biochemical, E. coli enzyme, set 3 (AID 504712); type: functional
[10] = system: Streptococcus sp. 'group A'; assay: growth inhibition of control SK(-) GAS strain, dose response, counter-screen for streptokinase expression inhibitor project, luminescence, kanamycin, BacTiterGlo, confirmation (AID 1900); type: functional, organism-based
[11] = biological target: T2, Streptokinase A (Streptococcus pyogenes serotype M1, UniProt P10520); assay: S. pyogenes streptokinase expression inhibitors, potency, dose response, plasminogen activation absorbance, OD405 (AID 1914); type: functional, Streptococcus pyogenes M1 GAS;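 further: secreted streptokinase activity via plasminogen activation per viability signal from cell pellet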
T2 sequence (P10520 whole entry): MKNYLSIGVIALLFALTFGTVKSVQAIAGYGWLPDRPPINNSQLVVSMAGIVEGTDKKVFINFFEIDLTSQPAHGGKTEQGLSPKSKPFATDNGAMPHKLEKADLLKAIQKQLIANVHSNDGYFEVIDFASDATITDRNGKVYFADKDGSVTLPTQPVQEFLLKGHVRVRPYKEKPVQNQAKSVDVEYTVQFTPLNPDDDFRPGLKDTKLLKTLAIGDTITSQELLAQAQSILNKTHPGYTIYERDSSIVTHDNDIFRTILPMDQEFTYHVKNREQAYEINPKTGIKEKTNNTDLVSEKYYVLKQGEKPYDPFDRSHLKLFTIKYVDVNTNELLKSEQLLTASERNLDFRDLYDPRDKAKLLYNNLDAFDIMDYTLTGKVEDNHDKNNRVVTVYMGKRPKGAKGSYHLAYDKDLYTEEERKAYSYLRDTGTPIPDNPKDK

[12] = system: Streptococcus; assay: Group A Streptococcus viability loss, dose response, counter-screen for streptokinase expression inhibitor project, luminescence, BacTiterGlo (AID 1915); type: functional, organism-based;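 further: potency for reduction of bacterial viability or growth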
[13] = inhibitors of intracellular T. cruzi replication, confirmation, NIH3T3 host cells, beta-gal luminescence (AID 2044); type: functional, cell-based;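 further: intracellular parasites grown in NIH/3T3 mouse fibroblasts as host cells; luminescent beta-galactosidase reporter signal from transgenic T. cruzi replicating inside host cells; inhibitors lower the luminescence signal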
[14] = cytotoxicity toward NIH3T3 fibroblasts, dose response, counter-screen, cell-based, ATP luminescence, mouse fibroblasts (AID 2010); type: functional;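 further: cells exposed to compound for about 90 hours before reading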
[15] = biological target: CAAX prenyl protease 2 (Saccharomyces cerevisiae S288c, UniProt Q03530); type: biochemical
[16] = biological target: Trypsin (Sus scrofa, UniProt P00761); assay: porcine trypsin inhibitors, dose response, selectivity assay for Rce1 protease inhibitor project, biochemical, quenched peptide fluorescence, cherry-pick (AID 488789)
[17] = Luminescence Cell-Based Dose Response HTS to Identify Activators of Luciferase Translation or Activity in H4 […] Cells. [Related pubchem assays: 1829 (Project Summary), 1814 (Primary HTS)]; type: functional
[18] = biological target: Cytochrome P450 3A4 (Homo sapiens, UniProt P08684);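 further: CYP3A4 tested as one member of a cytochrome P450 panel screen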
[19] = system: H4; assay: Luminescence Cell-Based Dose Response HTS to Identify Activators of 5'UTR Stem-Loop Driven Prion Protein mRNA Translation in H4 Neuroglioblastoma Cells. [Related pubchem assays: 1829 (Project Summary), 1814 (Primary HTS)]; type: functional; conditions: Homo sapiens
[20] = Luminescence Cell-Based Dose Confirmation HTS to Identify Activators of 5'UTR Stem-Loop Driven Alpha-Synuclein mRNA Translation in H4 Neuroglioblastoma Cells. [Related pubchem assays: 1829 (Project Summary), 1814 (Primary HTS)]; type: functional
[21] = NIH-3T3 fibroblast cytotoxicity, dose response, cytotoxicity control, cell-based, fluorescence, Alamar Blue, secondary assay (AID 2327); type: functional;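 further: NIH-3T3 mouse fibroblasts cultured with fluconazole at 8 µg/mL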
[22] = biological target: T1, Short transient receptor potential channel 4; assay: mouse TRPC4 channel activators, dose response, cell-based, HEK293 TRPC4/mu-opioid, Fluo-4 calcium (AID 434937); type: functional
[23] = biological target: Cytochrome P450 2C19 (Homo sapiens, UniProt P33261); assay: Cytochrome panel assay with activity outcomes. Panel member name: p450-cyp2c19 Compounds with AC50 equal or less than 10 uM are considered active; type: functional; conditions: read-out: AC50
[24] = biological target: Cytochrome P450 2C9 (Homo sapiens, UniProt P11712)
[25] = biological target: G-protein coupled receptor 55 (Homo sapiens, UniProt Q9Y2T6); assay: GPR55 antagonists blocking LPI-driven arrestin recruitment, primary screen, imaging, U2OS, beta-arrestin-GFP, LPI agonist (AID 2013); type: functional;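 further: antagonist potency measured as reduced agonist-driven arrestin aggregation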
G-protein coupled receptor 55, sequence (Q9Y2T6 whole entry): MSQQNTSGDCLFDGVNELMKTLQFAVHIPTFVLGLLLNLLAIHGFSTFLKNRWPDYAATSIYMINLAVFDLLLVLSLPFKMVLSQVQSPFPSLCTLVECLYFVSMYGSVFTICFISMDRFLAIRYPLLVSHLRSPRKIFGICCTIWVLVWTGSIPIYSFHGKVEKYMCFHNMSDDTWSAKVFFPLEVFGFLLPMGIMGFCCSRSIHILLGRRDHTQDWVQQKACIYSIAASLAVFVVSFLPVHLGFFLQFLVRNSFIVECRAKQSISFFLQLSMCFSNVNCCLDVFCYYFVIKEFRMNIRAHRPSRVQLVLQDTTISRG

Cytochrome P450 2C19, sequence (P33261 whole entry): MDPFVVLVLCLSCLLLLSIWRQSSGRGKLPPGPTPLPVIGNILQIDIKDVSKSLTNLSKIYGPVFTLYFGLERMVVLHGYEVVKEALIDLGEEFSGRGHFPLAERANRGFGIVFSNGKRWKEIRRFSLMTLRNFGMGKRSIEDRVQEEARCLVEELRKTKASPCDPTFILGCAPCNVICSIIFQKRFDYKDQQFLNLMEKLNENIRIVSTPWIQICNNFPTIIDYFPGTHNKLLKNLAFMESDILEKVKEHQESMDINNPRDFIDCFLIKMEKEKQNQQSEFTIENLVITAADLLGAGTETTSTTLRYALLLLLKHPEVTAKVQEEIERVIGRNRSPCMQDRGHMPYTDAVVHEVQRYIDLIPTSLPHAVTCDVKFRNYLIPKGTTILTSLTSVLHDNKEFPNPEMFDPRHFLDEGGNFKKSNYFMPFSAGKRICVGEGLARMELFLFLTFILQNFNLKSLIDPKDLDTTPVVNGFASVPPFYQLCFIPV
Cytochrome P450 2C9, sequence (P11712 whole entry): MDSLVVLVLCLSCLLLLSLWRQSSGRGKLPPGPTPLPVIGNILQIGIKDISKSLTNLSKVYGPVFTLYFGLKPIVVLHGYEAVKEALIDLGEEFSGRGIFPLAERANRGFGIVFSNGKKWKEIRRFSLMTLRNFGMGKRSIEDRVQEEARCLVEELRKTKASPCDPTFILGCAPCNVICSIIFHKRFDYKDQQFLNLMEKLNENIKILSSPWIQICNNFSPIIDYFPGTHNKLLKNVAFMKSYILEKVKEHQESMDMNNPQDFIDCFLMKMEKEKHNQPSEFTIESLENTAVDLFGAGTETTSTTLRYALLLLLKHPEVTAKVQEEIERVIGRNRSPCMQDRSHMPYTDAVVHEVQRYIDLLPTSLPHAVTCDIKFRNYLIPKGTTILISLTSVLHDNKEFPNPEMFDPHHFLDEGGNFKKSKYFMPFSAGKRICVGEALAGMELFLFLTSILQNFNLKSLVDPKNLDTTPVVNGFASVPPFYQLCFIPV
Cytochrome P450 3A4, sequence (P08684 whole entry): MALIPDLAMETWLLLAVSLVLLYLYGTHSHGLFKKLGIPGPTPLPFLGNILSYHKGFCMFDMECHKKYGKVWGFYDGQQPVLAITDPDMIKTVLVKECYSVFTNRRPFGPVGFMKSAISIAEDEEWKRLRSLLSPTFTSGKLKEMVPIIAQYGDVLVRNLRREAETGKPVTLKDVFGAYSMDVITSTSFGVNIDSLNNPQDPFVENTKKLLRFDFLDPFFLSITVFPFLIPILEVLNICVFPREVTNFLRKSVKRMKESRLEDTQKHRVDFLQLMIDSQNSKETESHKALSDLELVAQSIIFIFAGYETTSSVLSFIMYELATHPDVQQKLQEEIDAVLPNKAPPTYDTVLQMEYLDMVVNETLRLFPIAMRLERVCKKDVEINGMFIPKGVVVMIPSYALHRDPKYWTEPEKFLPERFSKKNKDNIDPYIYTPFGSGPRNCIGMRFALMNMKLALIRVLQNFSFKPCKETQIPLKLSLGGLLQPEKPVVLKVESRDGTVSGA
CAAX prenyl protease 2, sequence (Q03530 whole entry): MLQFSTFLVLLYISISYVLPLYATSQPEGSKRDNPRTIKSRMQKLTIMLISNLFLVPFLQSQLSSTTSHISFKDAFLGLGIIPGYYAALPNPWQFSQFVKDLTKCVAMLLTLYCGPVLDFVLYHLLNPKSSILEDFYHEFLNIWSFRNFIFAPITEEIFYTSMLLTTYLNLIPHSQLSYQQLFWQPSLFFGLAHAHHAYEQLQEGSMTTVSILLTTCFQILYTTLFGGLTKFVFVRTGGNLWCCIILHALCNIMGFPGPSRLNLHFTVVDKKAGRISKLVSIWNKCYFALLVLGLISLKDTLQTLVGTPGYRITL
DNA dC->dU-editing enzyme APOBEC-3G, sequence (Q9HC16 whole entry): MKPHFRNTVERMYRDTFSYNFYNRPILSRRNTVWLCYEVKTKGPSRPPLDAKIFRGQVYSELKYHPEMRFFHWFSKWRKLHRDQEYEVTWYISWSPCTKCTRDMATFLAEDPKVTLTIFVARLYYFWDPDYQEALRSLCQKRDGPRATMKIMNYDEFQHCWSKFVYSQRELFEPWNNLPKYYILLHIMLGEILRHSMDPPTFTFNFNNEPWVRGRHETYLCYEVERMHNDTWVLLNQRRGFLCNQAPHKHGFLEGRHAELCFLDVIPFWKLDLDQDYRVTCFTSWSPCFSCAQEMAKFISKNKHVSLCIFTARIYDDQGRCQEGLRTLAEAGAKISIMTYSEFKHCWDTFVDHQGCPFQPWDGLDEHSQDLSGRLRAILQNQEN
Beta-galactosidase, sequence (Q8VNN2 whole entry): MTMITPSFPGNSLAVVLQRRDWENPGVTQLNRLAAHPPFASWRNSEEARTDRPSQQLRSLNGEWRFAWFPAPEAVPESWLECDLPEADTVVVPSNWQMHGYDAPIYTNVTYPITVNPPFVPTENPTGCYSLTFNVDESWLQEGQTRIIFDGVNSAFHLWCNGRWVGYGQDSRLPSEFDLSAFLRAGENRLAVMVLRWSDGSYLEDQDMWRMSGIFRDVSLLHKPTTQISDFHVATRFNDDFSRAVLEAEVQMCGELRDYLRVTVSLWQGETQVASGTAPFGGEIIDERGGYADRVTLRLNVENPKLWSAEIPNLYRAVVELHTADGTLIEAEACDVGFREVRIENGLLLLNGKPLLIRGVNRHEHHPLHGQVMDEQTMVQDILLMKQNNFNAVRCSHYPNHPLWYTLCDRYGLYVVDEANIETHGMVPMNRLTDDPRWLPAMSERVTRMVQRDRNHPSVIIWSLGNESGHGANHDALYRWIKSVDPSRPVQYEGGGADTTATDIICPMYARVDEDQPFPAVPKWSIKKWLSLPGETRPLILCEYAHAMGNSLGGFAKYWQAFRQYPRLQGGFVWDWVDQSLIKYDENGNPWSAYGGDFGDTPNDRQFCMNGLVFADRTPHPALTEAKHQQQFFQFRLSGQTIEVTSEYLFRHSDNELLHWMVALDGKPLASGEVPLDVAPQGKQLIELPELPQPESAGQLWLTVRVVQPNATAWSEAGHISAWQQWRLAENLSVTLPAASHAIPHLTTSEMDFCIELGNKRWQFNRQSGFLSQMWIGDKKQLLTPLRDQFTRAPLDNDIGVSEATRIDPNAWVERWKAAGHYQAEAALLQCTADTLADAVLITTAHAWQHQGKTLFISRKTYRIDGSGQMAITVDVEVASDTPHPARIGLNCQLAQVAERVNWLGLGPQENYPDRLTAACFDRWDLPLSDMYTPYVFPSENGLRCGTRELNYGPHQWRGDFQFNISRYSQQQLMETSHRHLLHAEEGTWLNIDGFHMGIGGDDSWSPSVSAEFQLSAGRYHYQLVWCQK
Trypsin, sequence (P00761 whole entry): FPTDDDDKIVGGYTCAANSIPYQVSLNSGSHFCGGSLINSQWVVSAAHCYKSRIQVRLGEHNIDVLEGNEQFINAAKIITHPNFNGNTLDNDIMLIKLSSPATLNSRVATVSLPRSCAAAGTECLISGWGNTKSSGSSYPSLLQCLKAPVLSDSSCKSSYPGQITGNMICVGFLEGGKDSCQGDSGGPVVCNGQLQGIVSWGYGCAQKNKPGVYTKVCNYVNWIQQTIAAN

For `c1ccc(-c2nn3c(Cn4cnc5ccccc54)nnc3s2)cc1`, the CC50 [1] was 42.6 µM (active), the IC50 [2] was 5.46 µM (active) and the IC50 [3] was > 100 µM (inactive).
For `CN1CCN(c2ccc(NC(=O)c3ccc(-c4ccc(Cl)cc4)o3)cc2)CC1`, the CC50 [4] was 17.2 µM (active), the IC50 [5] was 3.04 µM (active) and the CC50 [6] was 17.6 µM (active). For the same molecule, the CC50 [7] was 8.12 µM (active) and the EC50 [8] was 0.0667 µM (active).
For `CCCCCCC(=O)NN/C=C1\C(=O)NC(=S)N(C(C)CC)C1=O` (centres undefined), the IC50 [9] was > 66.6 µM (inactive), the EC50 [10] was 5.17 µM (active) and the EC50 [11] was > 150 µM (not active). The EC50 [12] was 9.29 µM (active).
In the case of `O=C(CSc1nc2ccccc2s1)N1N=C(c2cccs2)CC1c1ccc(F)cc1` (centres undefined), the EC50 [13] is reported as 1.06 µM (active), the EC50 [14] is reported as > 60 µM (not active) and the AC50 [15] is reported as 12.1 µM (active). For the same molecule, the AC50 [16] was 24.5 µM (active).
In the case of `Cc1cc(C)n(-c2nc(SCCN(C)C)c3c4c(sc3n2)CCCC4)n1`, the EC50 [17] is reported as > 120 µM (not active), the AC50 [18] is reported as 17.8 µM (inconclusive) and the EC50 [19] is reported as > 120 µM (not active). The EC50 [20] was > 120 µM (not active), the CC50 [4] was 6.93 µM (active) and the EC50 [21] was 56 µM (active). The EC50 [22] was 1.88 µM (active), the AC50 [23] was 31.6 µM (inconclusive) and the IC50 [5] was 9.58 µM (active). The AC50 [24] was 15.8 µM (inconclusive), the CC50 [6] was 13.5 µM (active) and the CC50 [7] was 19.4 µM (active).
In the case of `CCCCOc1ccccc1NC(=O)c1scc2c1OCCO2`, the IC50 [25] is reported as 3.01 µM (active).
